According to patent US11590242B2, “Antibody-mediated autocatalytic, targeted delivery of nanocarriers to tumors” (Yale University, priority 2016, dated 2023):

Assays:
[1] = tested on: 4T1 murine breast cancer cells; assay: Cytotoxicity evaluation, MTT assay; format: cell-based, mouse; details: three days treatment, listed as Free DOX
Method: All chemicals were purchased from Sigma-Aldrich unless otherwise noted. The mouse mammary tumor cell line 4T1 was obtained from American Type Culture Collection (ATCC) and cultured in DMEM medium (Invitrogen) supplemented with 10% fetal bovine serum (Invitrogen), 100 units/ml penicillin and 100 ug/ml streptomycin (Invitrogen), in a 37° C. incubator containing 5% CO2.
4T1 cells were plated in a 96-well cell culture plate at a concentration of 2×10^3 per well and incubated with concentrations of nanoparticles ranging from 1.25 to 500 ug/mL. The same amounts of free DOX were added to parallel wells as controls. Three days after treatment, the effect of treatments on cell proliferation was determined using the standard MTT assay.

4T1 tumors = assay: Antitumor evaluation in mouse tumor xenografts; format: in vivo, mice; details: end of study, vs PBS control, i.v. three times a week
Method: Mice bearing 4T1 tumors were established as described above. […] Treatment was performed 3 times per week. Nanoparticles were administered at 1 mg, equal to 80 ug DOX per mouse. Tumor sizes were measured three times a week. Mice were euthanized when tumor volume reached 1000 mm^3, at which point the tumors were excised and fixed in formalin for immunohistochemistry. Serial sections were obtained and stained with hematoxylin and eosin (H&E) and Terminal Deoxynucleotidyl Transferase (TUNEL) for analysis of therapeutic effect. The growth curve was plotted using the mean of the tumor volumes for each treatment group, at each timepoint.

[2] = Blood concentrations of DOX-NPs with and without 3E10^EN as a function of time; format: in vivo, BALB/c mice; details: 1 mg DOX-NPs i.v., coumarin 6 co-loaded, 5 min-48 h
Method: Blood concentrations of DOX-NPs with and without conjugation of 3E10^EN recorded as a function of time. To enable detection of NPs, NPs were co-loaded with 1% coumarin 6. Six BALB/c mice were randomly assigned to two groups, which received intravenous administration of 1 mg DOX-NPs with and without conjugation of 3E10^EN, respectively. At 5 min, 15 min, 30 min, 1 h, 2 h, 4 h, 6 h, 24 h, 36 h and 48 h post injection, 20 uL blood sample from each mouse was collected into a 1.5 mL Eppendorf tube and lyophilized. Then, 100 uL DMSO and 1 mL acetonitrile were added to each tube. After sonication in a water bath sonicator for 15 min, samples were subjected to centrifugation at 4000 rpm for 20 min to remove cellular fragments and blood albumin. Then, 0.8 ml supernatant from each sample was collected and added to an eppendorf tube. The acetonitrile was evaporated and the dye in the DMSO was quantified at Ex/Em 444/505 nm using a plate reader (BioTek ELx800).

Cal12T lung cancer cells = assay: Delivery of nanoparticles into living cells (fluorescence microscopy, anti-myc immunostaining); format: cell-based; details: fixed cells

Compound	Effect on viability of 4T1 cells [1]	Reduction of tumor volume (4T1 tumors)	Circulation life of NPs [2]	Subcellular localization of di-scFv (Cal12T lung cancer cells)
COc1cccc2c1C(=O)c1c(O)c3c(c(O)c1C2=O)C[C@@](O)(C(=O)CO)C[C@@H]3O[C@H]1C[C@H](N)[C@H](O)[C@H](C)O1 [DOX, doxorubicin]	comparable inhibition of cells	26%		
3E10^EN: enhanced di-single chain variable fragment of anti-DNA antibody 3E10 with D31N mutation, SEQ ID NO:12			did not alter the circulation life of NPs	penetrated into cell nuclei
